According to US5824679A, “Phosphanoxides--preparation and use” (Boehringer Mannheim GmbH, priority 1994, dated 1998):

Assays:
horse thrombin = assay: Thrombin time (clotting of human citrate plasma on addition of thrombin reagent, ball coagulometer); format: biochemical, human plasma; horse thrombin; details: 37° C., difference to control (ca. 24 sec); for TT0.5 (thrombin time, difference to the control): 0.5 μM in human plasma; for TT5 (thrombin time, difference to the control): 5 μM in human plasma
Method: A conventional test in clinical coagulation diagnostics is the thrombin time. This parameter measures the action of thrombin on fibrinogen and the formation of clots. Inhibitors of thrombin result in an extended thrombin time.
In order to obtain plasma 9 parts of fresh blood from healthy donors was mixed with one part of sodium citrate solution (0.11 mol/l) and it was centrifuged for 10 minutes at room temperature at ca. 3000 r.p.m. The plasma was removed by pipette and can be stored at room temperature for ca. 8 hours.
200 μl citrate plasma was incubated for 2 minutes at 37° C. in a ball coagulometer (KC10 from the Amelung Company). 10 μl dimethylsulfoxide (DMSO) or a solution of the active substance in DMSO was added to 190 μl pre-heated thrombin reagent (Boehringer Mannheim GmbH; contains ca. 3 U/ml horse thrombin and 0.0125M Ca^++). On addition of 200 μl of this solution to the plasma a stopwatch was started and the time at which coagulation starts was determined.
The measured thrombin times in seconds are given in the following table as a difference to the control. The concentrations of the active substances in human plasma were 5 μM (TT5) and 0.5 μM (TT0.5).

human α thrombin = biological target: T1, human α thrombin (Homo sapiens, UniProt P00734); assay: Thrombin inhibition, kinetic measurement with substrate H-(D)-Phe-Pro-Arg-pNA; format: biochemical; details: 0.1M phosphate buffer, 0.2M sodium chloride, 0.5% polyethylene glycol 6000, pH=7.5, 25° C.
T1 construct: human α thrombin; purchased Sigma
Method: The kinetic measurements were carried out in 0.1M phosphate buffer that contained 0.2M sodium chloride and 0.5% polyethylene glycol 6000 at a pH=7.5 and 25° C. with the substrate H-(D)-Phe-Pro-Arg-pNA; Kabi and human α thrombin (Sigma, specific activity=2150 NIH-units/mg) in polystyrene semi-microcuvettes in a total volume of 1 ml.
In a preliminary test each active substance was determined as to whether it inhibits thrombin rapidly or slowly. For this the reaction was firstly started by adding 0.03 NIH units thrombin to a 100 μM solution of the substrate and the active substance. In a second experiment, substrate was added to a solution of thrombin and the active substance which had been incubated for 5 minutes. The increase in the concentration of p-nitroaniline with time was monitored spectroscopically (UV-VIS spectrophotometer Lambda-2 from the Perkin-Elmer Company) at 405 nm for 12 min.
Since the measured curves obtained in both experiments were linear and parallel, the active substances of the following table are rapid thrombin inhibitors.
The inhibition constants Ki were then determined as follows. The substrate was used at concentrations of 100 μM, 50 μM, 30 μM, 20 μM and at each substrate concentration a measurement was carried out without inhibitor and three measurements were carried out in the presence of various concentrations of the inhibitors listed in the following table. The reactions were started by adding thrombin. The increase in absorbance at 405 nm due to the formation of p-nitroaniline was monitored over a time period of 12 minutes. Measurement points (time versus absorbance) were transferred to a PC at intervals of 20 seconds. The rates VO (change in absorbance per second; measurements without inhibitor) and Vi (measurements with inhibitor) were determined by linear regression. Only that part of the measurement was used in which the substrate concentration had decreased by less than 15%. Km ' and Vmax were determined from a measurement series (constant inhibitor concentration, variable substrate concentrations) by a non-linear fit to the equation [formula]
Finally Ki was calculated from the entire series of measurements by a non-linear fit to the equation [formula]
The Michaelis constant Km was 3.8±2 μm in all measurements.
The inhibition constants Ki of the active substances are stated in the following table in units of μM.

Ki (human α thrombin) | SMILES | TT0.5 (thrombin time, difference to the control) (horse thrombin) | TT5 (thrombin time, difference to the control) (horse thrombin)
100 nM | Cc1cc(OCCNc2ccncc2)cc(N(CP(C)(C)=O)S(=O)(=O)c2ccccc2)c1 [Example 1, N-(Dimethyloxophosphinylmethyl)-N-{3-methyl-5-[2-(pyridin-4-ylamino)-ethoxyl]-phenyl}-benzene sulfonamide] | 33 s | 175 s
8 nM | COc1ccccc1S(=O)(=O)N(CP(C)(C)=O)c1cc(C)cc(OCCNc2ccncc2)c1 [Example 2, N-(Dimethyloxophosphinvlmethyl)-N-{3-methyl-5-[2-(pyridin-4-ylamino)-ethoxyl]-phenyl}-2-methoxy-benzene-sulfonamide] | 115 s | 300 s
12 nM | CCCCCCOc1ccccc1S(=O)(=O)N(CP(C)(C)=O)c1cc(C)cc(OCCNc2ccncc2)c1 [Example 4, N-(Dimethyloxophosphinylmethyl)-N-{3-methyl-5-[2-(pyridin-4-ylamino)-ethoxyl]-phenyl}-2-hexyloxy-benzene-sulfonamide] | 11 s | 113 s
28 nM | CCCOc1ccccc1S(=O)(=O)N(CP(C)(C)=O)c1cc(C)cc(OCCNc2ccnnc2)c1 [Example 6] | 18 s | 122 s
60 nM | CCOc1ccccc1S(=O)(=O)N(CP(C)(C)=O)c1cc(C)cc(OCCNc2ccnnc2)c1 [Example 7] | 14 s | 109 s
35 nM | Cc1cc(OCCNc2ccnnc2)cc(N(CP(C)(C)=O)S(=O)(=O)c2ccccc2OC(C)C)c1 [Example 8] | 47 s | 180 s

SMILES | Ki (human α thrombin) | TT0.5 (thrombin time, difference to the control) (horse thrombin) | TT5 (thrombin time, difference to the control) (horse thrombin)
CCCCOc1ccccc1S(=O)(=O)N(CP(C)(C)=O)c1cc(C)cc(OCCNc2ccncc2)c1 [Example 3, N-(Dimethyloxophosphinylmethyl)-N-{3-methyl-5-[2-(pyridin-4-ylamino)-ethoxyl]-phenyl}-2-butoxy-benzene-sulfonamide] | 4 nM | 50 s | 300 s
